In the oligonucleotide strings, read from the 5' end, every base follows the letter of its sugar. An asterisk marks phosphorothioate; unmarked linkages are phosphodiester. Other units and linkages are bracketed, terminal groups are in braces. A string of capitals states the bases alone. e = 2'-O-(2-methoxyethyl) (MOE); [5mC] = 5-methylcytosine; d = 2'-deoxy (DNA)
These substances were tested on human apolipoprotein B mRNA (assay: Inhibition of human apolipoprotein B mRNA levels in HepG2 cells, quantitative real-time PCR). Conditions: HepG2 cells treated with 150 nM of compound; averages from two experiments; quantitative real-time PCR.
Type: cell-based
Method in brief: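 HepG2 cells at 80% confluency were transfected with antisense oligonucleotide using 3.75 μg/mL Lipofectin in Opti-MEM for 4-7 h and harvested 16-24 h after treatment. Apolipoprotein B mRNA was measured by real-time RT-PCR and normalized to GAPDH or RiboGreen total RNA. Percent inhibition came from untreated-control standard curves.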

Substance | % INHIB (inhibition of human apolipoprotein B mRNA levels) [%]
281613 (antisense eG*eT*eA*eT*eG*dG*dA*dA*dA*dT*dA*dA*d[5mC]*dA*d[5mC]*e[5mC]*e[5mC]*eT*eT*eG) [compound 281613] | 70
271033 (e[5mC]*eA*eG*eT*eA*d[5mC]*dT*dG*dT*dT*dA*dT*dG*dA*d[5mC]*eT*eA*e[5mC]*e[5mC]*e[5mC]; antisense) [compound 271033] | 34
281631 (antisense eT*e[5mC]*eA*eA*e[5mC]*dG*dG*d[5mC]*dA*dT*d[5mC]*dT*d[5mC]*dT*d[5mC]*eA*eT*e[5mC]*eT*e[5mC]) [compound 281631] | 88
281624 (antisense eG*eG*eT*eT*e[5mC]*dT*dA*dG*d[5mC]*d[5mC]*dG*dT*dA*dG*dT*eT*eT*e[5mC]*e[5mC]*e[5mC]) [compound 281624] | 75
301044 (eA*eA*eA*eA*eT*dA*dA*d[5mC]*dT*d[5mC]*dA*dG*dA*dT*d[5mC]*e[5mC]*eT*eG*eA*eT; antisense) [compound 301044] | 76
301041 (eG*eA*eG*eT*eT*d[5mC]*dA*dG*dA*dG*dA*d[5mC]*d[5mC]*dT*dT*e[5mC]*e[5mC]*eG*eA*eG; antisense) [compound 301041] | 85
281617 (antisense eA*e[5mC]*e[5mC]*eA*e[5mC]*dA*dG*dA*dG*dT*d[5mC]*dA*dG*d[5mC]*d[5mC]*eT*eT*e[5mC]*eA*eT) [compound 281617] | 89
281649 (eG*e[5mC]*e[5mC]*eA*eT*d[5mC]*d[5mC]*dT*dT*d[5mC]*dT*dG*dA*dG*dT*eT*e[5mC]*eA*eG*eA; antisense) [compound 281649] | 76
281586 (eT*eG*eG*eA*e[5mC]*dA*dG*dA*d[5mC]*d[5mC]*dA*dG*dG*d[5mC]*dT*eG*eA*e[5mC]*eA*eT; antisense) [compound 281586] | 80
270997 (antisense eG*e[5mC]*eA*e[5mC]*eT*dG*dA*dG*dG*d[5mC]*dT*dG*dT*d[5mC]*d[5mC]*eA*e[5mC]*eA*e[5mC]*eT) [compound 270997] | 24
301043 (eA*eA*eA*eA*eA*dT*dG*d[5mC]*d[5mC]*dA*dT*d[5mC]*d[5mC]*dT*dT*e[5mC]*eT*eG*eA*eG; antisense) [compound 301043] | 81
281620 (antisense e[5mC]*e[5mC]*eT*eG*eA*dT*dA*dT*dT*d[5mC]*dA*dG*dA*dA*d[5mC]*eG*e[5mC]*eA*eG*e[5mC]) [compound 281620] | 89
271004 (antisense eG*e[5mC]*eT*e[5mC]*e[5mC]*dT*d[5mC]*dT*d[5mC]*d[5mC]*d[5mC]*dA*dA*dG*dA*eT*eG*e[5mC]*eG*eG) [compound 271004] | 10
281608 (antisense eG*eT*eA*eG*eA*dG*dA*d[5mC]*d[5mC]*dA*dA*dA*dT*dG*dT*eA*eA*eT*eG*eT) [compound 281608] | 62
281619 (antisense e[5mC]*eT*e[5mC]*eT*e[5mC]*d[5mC]*dA*dT*dT*dG*dA*dG*d[5mC]*d[5mC]*dG*eG*e[5mC]*e[5mC]*eA*eG) [compound 281619] | 96
271034 (e[5mC]*eA*e[5mC]*eT*eG*dA*dA*dG*dA*d[5mC]*d[5mC]*dG*dT*dG*dT*eG*e[5mC]*eT*e[5mC]*eT; antisense) [compound 271034] | 35
301048 (eT*eT*e[5mC]*e[5mC]*eT*d[5mC]*d[5mC]*dT*d[5mC]*d[5mC]*d[5mC]*d[5mC]*d[5mC]*dA*dA*eG*eT*eT*eT*eA; antisense) [compound 301048] | 67

Same assay, conditions: HepG2 cells; 10 nM; 24 hour (Table 41)

Substance | % Change in apolipoprotein B mRNA expression [%]
332780 (antisense CCTCAGTCTGCTTCGCAC; sugars from the 5' end e4 d10 e4, all phosphorothioate, methylation of C not given here) [compound 332780] | −3
332778 (antisense GCCTCAGTCTGCTTC; sugars from the 5' end e5 d10, linkages s4 o1 s9 (s phosphorothioate, o phosphodiester), methylation of C not given here) [compound 332778] | −11

Same assay, conditions: HepG2 cells; 50 nM; 24 hour (Table 41)

Substance | % Change in apolipoprotein B mRNA expression [%]
332780 (antisense CCTCAGTCTGCTTCGCAC; sugars from the 5' end e4 d10 e4, all phosphorothioate, methylation of C not given here) [compound 332780] | −43
332778 (antisense GCCTCAGTCTGCTTC; sugars from the 5' end e5 d10, linkages s4 o1 s9 (s phosphorothioate, o phosphodiester), methylation of C not given here) [compound 332778] | −20

Same assay, conditions: HepG2 cells; 150 nM; 24 hour (Table 41)

Substance | % Change in apolipoprotein B mRNA expression [%]
332780 (antisense CCTCAGTCTGCTTCGCAC; sugars from the 5' end e4 d10 e4, all phosphorothioate, methylation of C not given here) [compound 332780] | −74
332778 (antisense GCCTCAGTCTGCTTC; sugars from the 5' end e5 d10, linkages s4 o1 s9 (s phosphorothioate, o phosphodiester), methylation of C not given here) [compound 332778] | −58

Same assay, conditions: HepG2 cells; 50 nm oligonucleotide; variable deoxy gap position

Substance | % INHIB 50 nm [%]
308650 (antisense GCCTCAGTCTGCTTCGCACC; 6-10-4 2'-MOE gapmer, phosphorothioate, chemistry not fully specified) [compound 308650] | 74
308659 (antisense GCCTCAGTCTGCTTCGCACC; 9-10-1 2'-MOE gapmer, phosphorothioate, chemistry not fully specified) [compound 308659] | 70

Same assay, conditions: HepG2 cells; 150 nm oligonucleotide; variable deoxy gap position

Substance | % INHIB 150 nm [%]
308650 (antisense GCCTCAGTCTGCTTCGCACC; 6-10-4 2'-MOE gapmer, phosphorothioate, chemistry not fully specified) [compound 308650] | 94
308659 (antisense GCCTCAGTCTGCTTCGCACC; 9-10-1 2'-MOE gapmer, phosphorothioate, chemistry not fully specified) [compound 308659] | 93

Same assay, conditions: HepG2 cells; human apolipoprotein B mRNA; oligonucleotides targeting genomic sequence SEQ ID NO 334; averages from two experiments

Substance | % INHIB [%]
301192 (antisense eT*eG*eA*eG*eG*dA*dT*dG*dT*dA*dA*dT*dT*dA*dG*e[5mC]*eA*e[5mC]*eT*eT) [compound 301192] | 27
301063 (eG*eT*e[5mC]*eA*e[5mC]*dA*dT*d[5mC]*d[5mC]*dG*dT*dG*d[5mC]*d[5mC]*dT*eG*eG*eT*eG*e[5mC]; antisense) [compound 301063] | 41
301058 (eA*eG*eG*eA*eG*dG*dA*dT*dG*dT*d[5mC]*d[5mC]*dT*dT*dT*eT*eA*eT*eT*eG; antisense) [compound 301058] | 27
301183 (antisense eT*e[5mC]*eT*eG*eG*dG*d[5mC]*d[5mC]*dA*dG*dG*dA*dA*dG*dA*e[5mC]*eA*e[5mC]*eG*eA) [compound 301183] | 68
301129 (e[5mC]*eA*eT*eT*eT*dG*d[5mC]*dA*d[5mC]*dA*dA*dG*dT*dG*dT*eT*eT*eG*eT*eT; antisense) [compound 301129] | 35
301214 (antisense eT*eT*eT*e[5mC]*eT*d[5mC]*dT*dT*dT*dA*dT*d[5mC]*dA*d[5mC]*dA*eT*eG*e[5mC]*e[5mC]*e[5mC]) [compound 301214] | 29
301050 (eA*eT*eT*eT*e[5mC]*d[5mC]*dT*d[5mC]*dT*dT*d[5mC]*dT*dG*dT*dA*eA*eG*eA*e[5mC]*eA; antisense) [compound 301050] | 22
301144 (eG*e[5mC]*eA*eA*eA*dG*dG*dT*dA*dG*dA*dG*dG*dA*dA*eG*eG*eT*eA*eT; antisense) [compound 301144] | 32
301136 (e[5mC]*eT*eT*e[5mC]*eA*d[5mC]*dA*dA*dA*dT*dA*d[5mC]*dA*d[5mC]*dA*e[5mC]*e[5mC]*eT*eG*e[5mC]; antisense) [compound 301136] | 20
301138 (eT*eT*eG*e[5mC]*eT*dA*dG*d[5mC]*dT*dT*d[5mC]*dA*dA*dA*dG*eT*eG*eG*eA*eA; antisense) [compound 301138] | 44
301162 (antisense e[5mC]*eA*eT*e[5mC]*eT*d[5mC]*dT*dG*dA*dG*d[5mC]*d[5mC]*d[5mC]*d[5mC]*dT*eT*eA*e[5mC]*e[5mC]*eA) [compound 301162] | 24
301182 (antisense e[5mC]*e[5mC]*eA*eA*e[5mC]*dT*d[5mC]*d[5mC]*d[5mC]*d[5mC]*d[5mC]*dT*dT*dT*d[5mC]*eT*eT*eT*eG*eT) [compound 301182] | 37
301135 (eA*eA*eA*eT*eA*d[5mC]*dA*d[5mC]*dA*d[5mC]*d[5mC]*dT*dG*d[5mC]*dT*e[5mC]*eA*eT*eG*eT; antisense) [compound 301135] | 20
301141 (eT*eA*e[5mC]*eA*eA*dG*dG*dT*dG*dT*dT*dT*d[5mC]*dT*dT*eA*eA*eG*eA*eA; antisense) [compound 301141] | 38
301110 (antisense e[5mC]*eT*eG*eG*eA*dG*dA*dG*d[5mC]*dA*d[5mC]*d[5mC]*dT*dG*d[5mC]*eA*eA*eT*eA*eG) [compound 301110] | 35

Same assay, conditions: Table 1; HepG2 cells, 150 nM; averages from two experiments

Substance | % INHIB [%]
147807 (antisense eG*eG*e[5mC]*eG*eT*dA*dG*dA*dG*dA*d[5mC]*d[5mC]*d[5mC]*dA*dT*e[5mC]*eA*e[5mC]*eA*eT) [compound 147807] | 25
147809 (antisense e[5mC]*e[5mC]*e[5mC]*eA*eG*dT*dG*dA*dT*dA*dG*d[5mC]*dT*d[5mC]*dT*eG*eT*eG*eA*eG) [compound 147809] | 60
147786 (antisense e[5mC]*eT*eT*eG*eA*dA*dT*d[5mC]*dA*dG*d[5mC]*dA*dG*dT*d[5mC]*e[5mC]*e[5mC]*eA*eG*eG) [compound 147786] | 34

Same assay, conditions: Table 11 gene walk; HepG2 cells, 50 nM; averages from two experiments

Substance | % INHIB 50 nm [%]
308615 (e[5mC]*eT*eT*eT*eT*dA*dG*dG*dT*dT*dA*d[5mC]*d[5mC]*dA*dG*e[5mC]*e[5mC]*eA*e[5mC]*eA; antisense) [compound 308615] | 45

Same assay, conditions: Table 11 gene walk; HepG2 cells, 150 nM; averages from two experiments

Substance | % INHIB 150 nm [%]
308615 (e[5mC]*eT*eT*eT*eT*dA*dG*dG*dT*dT*dA*d[5mC]*d[5mC]*dA*dG*e[5mC]*e[5mC]*eA*e[5mC]*eA; antisense) [compound 308615] | 85

Same assay, conditions: Table 15; HepG2 cells, 150 nM; averages from two experiments

Substance | % INHIB [%]
301218 (antisense eA*e[5mC]*eA*eT*eT*dT*dT*dA*dT*d[5mC]*dA*dA*dT*dG*d[5mC]*e[5mC]*e[5mC]*eT*e[5mC]*eG) [compound 301218] | 23
301225 (antisense eT*eA*eA*eA*eT*d[5mC]*dA*d[5mC]*dA*d[5mC]*dT*dA*dT*dG*dT*eG*eT*eT*e[5mC]*eT) [compound 301225] | 3
